Test results: patent US20050182084A1, “Method for treating erectile dysfunction” (FUJISAWA PHARMACEUTICAL CO., LTD., priority 2004, published 2005)

System: rat cavernous nerve injury model
Experiment: recovery of erectile function in rat cavernous nerve injury model (intracavernous pressure)
Format: in vivo
Method: Effect of the compound (Ia) on erectile dysfunction was confirmed by a rat cavernous nerve injury model.
• (1) The recovery of erectile function after cavernous nerve injury was basically assessed in a similar manner to that of BJU International 92, 470-475 (2003). • (2) The compound (Ia), in a form of the solution which was prepared in a similar manner to that of Example 1 mentioned above, or its placebo was given to rats, from 1 day after surgery to 1 day before harvesting for 8 weeks, subcutaneously after being diluted with a suitable amount of HCO-60/EtOH in physiological saline.

For `CO[C@H]1C[C@@H](C)C/C(C)=C/[C@@H](CC(C)=O)C(=O)C[C@H](O)[C@@H](C)[C@@H](/C(C)=C/[C@@H]2CC[C@@H](O)[C@H](OC)C2)OC(=O)[C@@H]2CCCCN2C(=O)C(=O)[C@]2(O)O[C@H]1[C@@H](OC)C[C@H]2C` [Compound (Ia)], the “effect on intracavernous pressure (in words)” value (rat cavernous nerve injury model, conclusion from Table 1) was “remarkable recovery effect on intracavernous pressure” and the “Peak intracavernous pressure(cm H2O) mean ± S.E.” value (rat, cavernous nerve injury, 1 mg/kg subcutaneously, from 1 day after surgery for 8 weeks, n = 7, **P < 0.01 v.s. vehicle-treated (Dunnett's post-test)) was 97.4 ± 8.0** cm H2O.
